These results are taken from patent publication US6001815A, “Depsipeptides containing N-substituted glycine residue” (Nisshin Flour Milling Co., Ltd., priority 1997, dated 1999).

SMILES strings stand for the structures. Where a SMILES comes first, the peptide text is derived from it. [ ]: non-standard residue; d: D form. The star is where a group is joined. Fmoc = O=C(OCC1c2ccccc2-c2ccccc21)*; X1 = CCCCCCCCCCCC(CC(=O)O)O*; NBuGly = CCCCNCC(=O)O

This experiment deals with apolipoprotein E production in Hep G2 cells. Put plainly: Productivity of apolipoprotein E in Hep G2 cells, determined by enzyme immunoassay. Type of experiment: cell-based, human. Conditions: Hep G2 culture supernatant, methanol control defined as 100. Here is the method:
It will be shown below that the depsipeptides of the invention may influence upon the productivity of apolipoprotein E in Hep G2 cells, together with the test procedure as used.
First, Hep G2 cells of 1×10^5 cells were suspended in Dulbecco's modified Eagle medium (manufactured by Nissui Seiyaku Co., Ltd.; hereinafter referred to as "D-MEM medium") containing 10% fetal bovine serum and 1 ml each of the suspension was poured into a 24-well tissue culture plate. The cells were cultivated at 37° C. under atmosphere of a mixed gas composed of 5% carbon dioxide and 95% air. […]
It was again washed three times with 300 μl of PBS, 50 μl of the above sample solution (the medium for Hep G2 cells) was added and the mixture was allowed to stand at room temperature for 2 hours. […] The reaction was quenched by the addition of 100 μl of 2N sulfuric acid and absorbance was measured at 490 nm using absorbance at 650 nm as a control. An amount of apolipoprotein E in the present depsipeptide was determined upon the calibration curve drawn up when a commercially available apolipoprotein E (Chemicon Co., Ltd., U.S.A.) was used as a standard.
In the Test Example, the same procedure as described above was carried out except that methanol alone was added instead of the methanolic solution of the depsipeptide of this invention and an apolipoprotein E amount was measured as a control. […]

In the case of `CCCCCCCCCCCC(CC(=O)O)OC(=O)CN(CCCC)C(=O)CN(CCCC)C(=O)[C@H](CC(=O)O)NC(=O)[C@@H](NC(=O)OCC1c2ccccc2-c2ccccc21)C(C)C` (some centres unmarked) [Compound 2] (Fmoc-VD[NBuGly][NBuGly]-X1), the “Relative amount of apolipoprotein E (%)” value runs as follows: (Conc. 1 μM) 256%; (Conc. 5 μM) 389%.
